Test results: patent US20220133831A1, “Sarcopoterium Spinosum Extract for Treating Inflammation” (Ariel Scientific Innovations Ltd., priority 2019, published 2022)

Tests used:
Type in all cases: cell-based, mouse
RAW264.7 cells [1] = experiment: Western blot analysis of MAPK, STAT and Akt phosphorylation
Protocol: RAW264.7 cells were treated with LPS (200 ng/ml) and/or SSE (70 μg/ml) for 24 hr. Protein were lysed using RIPA buffer supplemented with protease and phosphatase inhibitors. The samples were homogenized and centrifuged at 14,000 rpm for 15 min. The supernatant was collected and protein concentration was measured using the Bradford method. Proteins (20 μg per lane) were separated by SDS-polyacrylamide gel electrophoresis and transferred onto nitrocellulose membranes. The membranes were blocked in 5% dry milk solution, incubated with the appropriate antibody solutions (5% BSA in 0.01% TBST) and proteins were immunodetected using the enhanced chemiluminescence method.

[2] = system: bone marrow-derived macrophages (BMDM); experiment: Western blot analysis of MAPK phosphorylation in BMDM
Protocol: (§1) In-vitro experiments were performed on RAW264.7 mouse macrophage cell line and on bone marrow-derived macrophages (BMDM). RAW264.7 cells were grown in high glucose DMEM containing 10% FBS, 2 mM 1-glutamine and 1% penicillin/streptomycin. For BMDM: C57bl/6J mice at age 10 weeks were purchased from Envigo, Israel. BMDMs were isolated from femur and tibia bones. Mice were sacrificed using a CO2 chamber. Mice legs were cut off, while fur, flesh and muscle tissue were removed in sterile environment followed by disconnection of the tibia from the femur. Bone marrow content was washed out using a complete RPMI and 23G syringe followed by filtration of the supernatant through a 21G syringe. The cells were centrifuged at 450×g for 10 min at room temperature and the pellet was resuspended in RPMI containing 10% FBS, 1% penicillin/streptomycin, HEPES buffer (120 Mm) and M-CSF (50 μg/ml). The media was replaced every 3 days. The experiment was performed on the 7th day of differentiation.
RAW264.7 cells were treated with LPS (200 ng/ml) and/or SSE (70 μg/ml) for 24 hr. Protein were lysed using RIPA buffer supplemented with protease and phosphatase inhibitors. The samples were homogenized and centrifuged at 14,000 rpm for 15 min. The supernatant was collected and protein concentration was measured using the Bradford method. […]

[3] = system: bone marrow-derived macrophages (BMDM); experiment: NO secretion of BMDM (Griess reagent); conditions: 24 hr
Protocol: as §1
(§2) RAW264.7 cells (1×10^5 cells/ml) were cultured in 6-well plates. After 24 h incubating, NO synthesis was determined by assaying the culture supernatant for nitrite, using Griess reagent (Promega), according to manufacturer instructions.

[4] = system: bone marrow-derived macrophages (BMDM); experiment: mRNA expression in BMDM (RT-PCR); conditions: 24 hr
Protocol: as §1
(§3) Total RNA was extracted from Raw264.7 cells using TRI reagent (Molecular Research Center, Inc. Cincinnati, Ohio) according to manufacturer instructions. RNA (4 μg) was reverse transcribed by oligo-dT priming (Stratascript 5.0 multi-temperature reverse transcriptase, Stratagene) according to manufacturer instructions. Real-time PCR amplification reactions were performed using SYBR Fast Universal Ready-mix Kit (Kappa Biosystems), using the MxPro QPCR instrument (Stratagene). Primers for real time PCR reactions were synthesized by Sigma, Israel.

RAW264.7 cells [5] = experiment: Cell viability assay (XTT); conditions: 24 h
Protocol: as §1
RAW264.7 cells were seeded (5×10^4 cells/well) in 96-well plates, and incubated overnight followed by treatment with LPS (200 ng/ml) and/or SSE (70 μg/ml). Cell viability was determined by XTT assay (Biological Industries, Israel. Cat. No.: 20-300-1000) according to manufacturer instructions.

NFκB in RAW264.7 cells = experiment: NFκB activation (NFkB p65 Transcription Factor Assay Kit); conditions: LPS 200 ng/ml, SSE 70 μg/ml
Protocol: RAW264.7 cells were treated with LPS (200 ng/ml) or SSE (70 μg/ml) for 3 h. NFκB activation was measured using NFkB p65 Transcription Factor Assay Kit (Abcam, Cambridge, UK), according to manufacturer instructions. In this assay, nuclear proteins were extracted using extraction buffer supplied by Abcam. The samples were homogenized and centrifuged at 12,000 RPM for 1 min. The supernatant was collected and protein concentration was measured using the Bradford method. Nuclear protein extract (5 μg) was added to the wells, which were coated with DNA sequence containing the NFkB response element. The selective binding of the transcription factor to its DNA response element was measured according to manufacturer's instructions.

RAW264.7 cells [6] = experiment: Cell morphology, bright field micrographs; conditions: LPS or SSE, 24 h
Protocol: FIGS. 3A-3B show increased viability and affected cell morphology in […] cells in response to SSE treatment. RAW264.7 cells were treated with lipopolysaccharide (LPS) or SSE for 24 h. A. Viability was measured by XTT assay. Results are presented as the Mean±SEM, *P<0.05, **P<0.005, ***P<0.001 by one-way Anova, followed by Bonferroni's post-test. B. Micrographs of cells were performed using bright field Olympus imaging system, ×20 magnification. Upper two: left—control; right—LPS; lower two: left—SSE; right—LPS+SSE.
as §1, with “The cells were centrifuged at 450×g for 10 min at room temperature and the pellet was resuspended in RPMI containing 10% FBS, 1% penicillin/streptomycin, HEPES buffer (120 Mm) and M-CSF (50 μg/ml). The media was replaced every 3 days. The experiment was performed on the 7th day of differentiation.” left out

RAW264.7 cells [7] = experiment: Nitrite assay (Griess reagent), NO synthesis; conditions: LPS and/or SSE, 24 h
Protocol: as §2

RAW264.7 cells [8] = experiment: Real time PCR, mRNA expression of pro and anti-inflammatory genes; conditions: LPS and/or SSE, 24 h
Protocol: as §3

[9] = system: bone marrow-derived macrophages (BMDM); experiment: Cell morphology of bone marrow-derived macrophages; conditions: LPS or SSE, 24 hr
Protocol: FIGS. 6A-6D show an immunomodulatory effect of SSE on bone marrow-derived macrophages (BMDM). BMDM were isolated and cultured as described in the methods. Cells were treated with LPS and/or SSE for 24 hr. A. micrographs of cells were performed by bright field Olympus imaging system. Upper two: left—control; right—LPS; lower two: left—SSE; right—LPS+SSE. B. NO synthesis was measured by Griess reagent as described in the methods. C. mRNA was isolated and expression of selected genes was measured by RT-PCR as described in the methods. Results were normalized to the expression of the housekeeping gene RPS29, and are presented as the Mean±SEM. *P<0.05, **P<0.005, ***P<0.001 ****P<0.0001 compared to control, or as indicated in graphs, by one-way Anova, followed by Bonferroni's post-test. D. Western-blot analysis was performed as described in the methods. These are representative results of 3 independent experiments.
In-vitro experiments were performed on RAW264.7 mouse macrophage cell line and on bone marrow-derived macrophages (BMDM). RAW264.7 cells were grown in high glucose DMEM containing 10% FBS, 2 mM 1-glutamine and 1% penicillin/streptomycin. For BMDM: C57bl/6J mice at age 10 weeks were purchased from Envigo, Israel. BMDMs were isolated from femur and tibia bones. Mice were sacrificed using a CO2 chamber. […]

[10] = LPS 200 ng/ml or SSE 70 μg/ml, 24 hr

For lipopolysaccharide [LPS], the Akt phosphorylation (RAW264.7 cells [1]) was “induced”, the STAT1 phosphorylation (RAW264.7 cells [1]) was “not affected” and the “STAT3 phosphorylation on S727 residue” value (RAW264.7 cells [1]) was “induced to be phosphorylated”. For the same substance, the ERK1/2 phosphorylation (RAW264.7 cells [1]; [10]) was “phosphorylated”, the JNK phosphorylation (RAW264.7 cells [1]; [10]) was “phosphorylated” and the p38 phosphorylation (RAW264.7 cells [1]; [10]) was “phosphorylated”. For the same substance, the STATS phosphorylation (RAW264.7 cells [1]; data not shown) was “not detected at all”, the Erk phosphorylation [2] was “phosphorylated” and the P38 phosphorylation [2] was “increased”. The “NO secretion (basal)” value [3] was “significantly increased”, the “mRNA expression of Arg1” value [4] was “also increased” and the “mRNA expression of IL1β” value [4] was “stimulated”. For the same substance, the “mRNA expression of IL-6” value [4] was “stimulated”, the “mRNA expression of IL-10” value [4] was “also increased” and the “mRNA expression of MCP-1” value [4] was “stimulated”. The “mRNA expression of TNFα” value [4] was “stimulated”, the “proliferation rate (viability by XTT)” value (RAW264.7 cells [5]) was “stimulatory effect” and the “NFκB activation (binding of NFκB to its DNA response element)” value (NFκB in RAW264.7 cells) was “increased”. For the same substance, the morphology of cells (RAW264.7 cells [6]) was “flattened, increased in size and acquired a distinct dendritic morphology”, the “NO synthesis (nitrite in supernatant)” value (RAW264.7 cells [7]) was “increased” and the “mRNA expression of IL1β” value (RAW264.7 cells [8]) was “increased”. For the same substance, the “mRNA expression of IL-6” value (RAW264.7 cells [8]) was “increased”, the “mRNA expression of MCP-1” value (RAW264.7 cells [8]) was “increased” and the “mRNA expression of TNFα” value (RAW264.7 cells [8]) was “increased”. The “morphology of BMDM” value [9] was “enlargement of the cells, with a minor vacuolization”.
